According to PubChem BioAssay AID463203 (Broad Institute, 2010):
Activity calls are given as the source filed them.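 Rule for the calls: active = more than half of replicate measurements showing over 20% loss of kinase signal relative to plate controls; inconclusive = some but at most half of replicates over 20% loss; inactive = no replicate over 20% signal loss.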

The compounds below were run against Glycogen synthase kinase-3 alpha (Homo sapiens) (UniProt P49840) (assay: concentration-response blocking of human GSK3A – biochemical, luminescence, cell-free homogeneous, retest, dose response (AID 463203)). Settings: GSK-3 alpha enzyme, ADP-Glo luminescence, 60 min.
Glycogen synthase kinase-3 alpha (Homo sapiens), sequence (P49840 whole entry, looked up): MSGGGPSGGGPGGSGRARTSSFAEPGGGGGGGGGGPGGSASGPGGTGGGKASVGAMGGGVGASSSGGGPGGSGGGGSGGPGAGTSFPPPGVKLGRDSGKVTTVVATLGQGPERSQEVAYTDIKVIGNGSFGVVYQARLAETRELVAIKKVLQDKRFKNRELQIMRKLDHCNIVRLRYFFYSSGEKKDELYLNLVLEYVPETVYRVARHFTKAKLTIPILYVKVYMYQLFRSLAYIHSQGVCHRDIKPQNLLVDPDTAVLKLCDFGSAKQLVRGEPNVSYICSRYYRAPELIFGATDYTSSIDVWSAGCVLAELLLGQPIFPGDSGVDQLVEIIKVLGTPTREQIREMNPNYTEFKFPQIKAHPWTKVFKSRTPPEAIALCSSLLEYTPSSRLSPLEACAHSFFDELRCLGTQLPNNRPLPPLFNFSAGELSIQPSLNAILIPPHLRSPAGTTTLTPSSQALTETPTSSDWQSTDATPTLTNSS

| Compound | AC50 |
| --- | --- |
| CC(=O)c1c(O)ccc2c(-c3ccccc3)cc(=O)oc12 | > 30 µM (inactive) |
| CCOc1ccc(NC(=O)N(C2CCCCC2)C(C)c2cccnc2)cc1 (stereo not given) | > 30 µM (inactive) |
| CCOC(=O)N1CCN(C(=O)CSc2ccc3nnc(-c4ccccn4)n3n2)CC1 | > 30 µM (inactive) |
| COc1ccc(N=Cc2c(O)[nH]c3ccccc23)cc1OC | 20.3 µM |
| O=C(CSc1n[nH]c(=O)n1-c1ccc2c(c1)OCCO2)Nc1ccccc1 | > 30 µM (inactive) |
| CCC(CC)c1nnc(NC(=O)Oc2ccccc2)s1 | > 30 µM (inactive) |
| COc1cccc(C(C[N+](=O)[O-])c2c(C)[nH]n(-c3ccccc3)c2=O)c1 (stereo not given) | > 30 µM (inactive) |
| COc1ccc(/C=N\NC(=O)c2ccccc2Br)cc1COc1ccccc1 | > 30 µM (inactive) |
| CC(C)c1ccc(NC(=O)CSc2n[nH]c(=O)n2-c2ccc3c(c2)OCCO3)cc1 | > 30 µM (inactive) |
| CCC(=NCc1cccnc1)c1c(O)n(C2CCCCC2)c(=O)[nH]c1=O | > 30 µM (inactive) |
| N#CCCn1cc(C(=O)N2CCCCC2)c(-c2cccc([N+](=O)[O-])c2)n1 | > 30 µM (inactive) |
| COc1ccc(N=Cc2c(O)[nH]c3ccccc23)cc1 | 19.8 µM |
| O=C(Nc1ccccc1-c1nnc(SCc2ccc(Cl)cc2)o1)c1ccccc1 | > 30 µM (inactive) |
| Cc1cccc(Nc2ncccc2C(=O)O)c1C | > 30 µM (inactive) |
| c1ccc(-c2csc3ncnc(NCc4ccccn4)c23)cc1 | 24.5 µM |
| CCC(=NCCCn1ccnc1)c1c(O)n(-c2ccccc2)c(=O)[nH]c1=O | 27.8 µM |
| COc1ccc2nc(C)cc(N3CCN(S(=O)(=O)c4ccccc4F)CC3)c2c1 | 8.27 µM |
| Cc1nnc(NC(=O)Oc2ccccc2)s1 | > 30 µM (inactive) |
| Cc1noc(C)c1CSc1nnc(-c2ccccc2)o1 | > 30 µM (inactive) |
| Cc1ccnc(NC(=O)CCC(=O)N(CC(=O)NCc2ccccc2)Cc2ccc(F)cc2)c1 | 25 µM |
| O=C(c1ccccc1)c1cnc(Nc2ccccc2Cl)s1 | > 30 µM (inactive) |
| Nc1ncnc2c1ncn2[C@@H]1O[C@H](CNCc2ccccc2)[C@@H](O)[C@H]1O | > 30 µM (inactive) |
| Cn1c(=O)c2[nH]c(CNc3ccc(C(=O)O)cc3)nc2n(C)c1=O | > 30 µM (inactive) |
| COc1cc(C2c3sc(=O)[nH]c3SC3C(=O)N(c4ccc(C)cc4)C(=O)C32)ccc1O (stereo not given) | > 30 µM (inactive) |
| Cc1onc(-c2c(F)cccc2Cl)c1C(=O)OCC(=O)Nc1c(C)n(C)n(-c2ccccc2)c1=O | > 30 µM (inactive) |
| Cn1c(=O)c2c(nc(NCC3CCCO3)n2Cc2ccccc2)n(C)c1=O (stereo not given) | > 30 µM (inactive) |
| Cc1cc(O)c2c(-c3ccccc3)cc(=O)oc2c1 | > 30 µM (inactive) |

| Compound | AC50 |
| --- | --- |
| N#Cc1c(Cl)c(Cl)c2nnc(-c3ccc(Br)cc3)n2c1Cl | 20.6 µM |
| O=C1c2cnc3nc(SCc4ccc(Cl)cc4)nn3c2CC2c3ccccc3CCN12 (stereo not given) | > 30 µM (inactive) |
| CNc1nnc(-c2cc3ccccc3oc2=O)s1 | 8.99 µM |
| Cc1nc2cc(-c3ccccc3)ccc2o1 | > 30 µM (inactive) |
| Cn1c(SCc2nc(-c3ccc(Cl)cc3)no2)nnc1-c1ccccc1 | > 30 µM (inactive) |
| O=C(O)COc1ccc2c(c1)O/C(=C\c1cccs1)C2=O | 26.2 µM |
| CCOC(=O)N1CCc2c(sc3nc(SC(C)C)n(N)c(=O)c23)C1 | > 30 µM (inactive) |
| Cc1ccc(/C=N/NC(=O)c2nnn(-c3nonc3N)c2CN(C)C2CCCCC2)cc1 | > 30 µM (inactive) |
| CC(=O)C1C(c2ccccc2)c2c(n[nH]c2C)CC1(C)O (stereo not given) | > 30 µM (inactive) |
| O=c1c2ccccc2oc2ccc(NCCCn3ccnc3)cc12 | > 30 µM (inactive) |
| Cc1ccccc1C(=O)O/N=C(\N)c1cccc([N+](=O)[O-])c1 | > 30 µM (inactive) |
| O=C1CCCC2=C1C(c1cccc(O)c1)c1c(ccc3ncccc13)N2 (stereo not given) | > 30 µM (inactive) |
| CCC(=N\NC(=O)COc1ccccc1OC)/C(CC)=N/NC(=O)COc1ccccc1OC | > 30 µM (inactive) |
| CC(=O)c1cccc(NC(=O)c2cc(-n3cnnc3)ccc2Cl)c1 | > 30 µM (inactive) |
| O=[N+]([O-])c1ccc(O)c(CN2CCCCCC2)c1 | > 30 µM (inactive) |
| COc1ccc(-c2nsc3c(N4CCCCC4C)ncnc23)cc1 (stereo not given) | > 30 µM (inactive) |
| CCCOC(=O)c1[nH]c2c(c1C)C(=O)CC(c1cc(OC)c(OC)c(OC)c1)C2 (stereo not given) | > 30 µM (inactive) |
| CN(C)CCCNc1oc(-c2ccccc2)nc1C#N | > 30 µM (inactive) |
| CC1CCc2c(sc(NC(=O)CCCn3cnc([N+](=O)[O-])n3)c2C(N)=O)C1 (stereo not given) | > 30 µM (inactive) |
| CCc1ccc(OCC(O)CNC(C)(C)C)cc1 (stereo not given) | > 30 µM (inactive) |
| Cc1nc2ncnn2c(C)c1Cc1cccc(F)c1 | > 30 µM (inactive) |
| Nc1nonc1-n1nnc(C(=O)N/N=C/c2cccc(Cl)c2)c1-c1cccs1 | 0.614 µM |
| S=C(Nc1cccnc1)Nc1cccc2cnccc12 | > 30 µM (inactive) |
| O=C(CSc1ccc2nnc(-c3ccc(F)cc3)n2n1)N1CCCc2ccccc21 | 0.98 µM |
| NC(=O)c1c(NC(=O)C(=O)N2CCOCC2)sc2c1CCC2 | > 30 µM (inactive) |
| N#CC1=C2SCN(Cc3ccco3)CN2C(=O)CC1c1ccccc1F (stereo not given) | > 30 µM (inactive) |
| Cc1ccsc1C(=O)OCC(=O)N1C(C)CCCC1C (stereo not given) | > 30 µM (inactive) |

| Compound | AC50 |
| --- | --- |
| CCOC(=O)c1cnc2c(C)cc(Cl)cc2c1N1CCN(C)CC1 | > 30 µM (inactive) |
| NC(=O)c1cn(C2OC(CO)C(O)C2O)c2ncnc(N)c12 (stereo not given) | 6.52 µM |
| COc1ccc(CC(=O)Oc2ccccc2C)cc1 | > 30 µM (inactive) |
| CCn1c(SCC(=O)Nc2nc3ccc(OC)cc3s2)nnc1-c1ccoc1C | 5.81 µM |
| COc1ccc(CCNc2cc(C)nc(N)n2)cc1OC | > 30 µM (inactive) |
| CC(Oc1ccccc1)C(=O)Nc1nnc(C2CCCCC2)s1 (stereo not given) | > 30 µM (inactive) |
| Nc1nc2n(n1)C(c1ccc(F)cc1)CC(c1ccc(F)cc1)N2 (stereo not given) | > 30 µM (inactive) |
| O=C(O)CCSc1nnc(-c2ccncc2)n1-c1ccccc1 | > 30 µM (inactive) |
| COc1ccccc1Nc1nc(Cl)c(C=O)s1 | > 30 µM (inactive) |
| N/C(=N\OC(=O)c1ccco1)c1ccc(Cl)cc1 | > 30 µM (inactive) |
| CCC(Sc1ccc2nnc(-c3cccnc3)n2n1)C(=O)O (stereo not given) | > 30 µM (inactive) |
| Cc1ccc(NC(=O)CSCc2nc3c(nnn3Cc3ccc(F)cc3)c(=O)[nH]2)c(C)c1 | > 30 µM (inactive) |
| Cc1cccc(OCC(=O)N2CCN(c3nnc(-c4ccccc4)c4ccccc34)CC2)c1 | > 30 µM (inactive) |
| Cc1cc(N/N=C/c2ccccc2Br)nc2ccccc12 | > 30 µM (inactive) |
| c1ccc2c(CCNc3ncnc4nc[nH]c34)c[nH]c2c1 | 23.1 µM |
| CC(C)CCNc1nc(N)c([N+](=O)[O-])c(N2CCCCCC2)n1 | 8.86 µM |
| CCN(C(=O)CN1CC=C(c2ccccc2)CC1)c1c(N)n(Cc2ccccc2)c(=O)[nH]c1=O | > 30 µM (inactive) |
| Cc1c(C(=O)N/N=C/c2ccc(O)c(Br)c2)sc(N)c1C#N | 1.02 µM |
| Cc1nc(NCC2CCCO2)[nH]c(=O)c1CCC(C)C (stereo not given) | > 30 µM (inactive) |
| O=C(NCC1CCCO1)c1ccc(NC(=O)c2cccc([N+](=O)[O-])c2)cc1 (stereo not given) | > 30 µM (inactive) |
| O=C1NC(=Nc2ccccc2)S/C1=C/c1cccs1 | > 30 µM (inactive) |
| COc1ccc(COC(=O)C2=C(C)NC(=O)NC2c2ccc(OC)c(OC)c2)cc1 (stereo not given) | > 30 µM (inactive) |
| COc1ccc(C(=O)C[n+]2cccc(Br)c2)cc1 | > 30 µM (inactive) |
| O=C(Nc1ccsc1C(=O)O)c1ccc(Cl)cc1 | > 30 µM (inactive) |
| COc1ccc(OC)c(/C=C2\Oc3cc(OCC(=O)N4CC(O)C[C@H]4C(=O)O)ccc3C2=O)c1 (stereo not given in full) | > 30 µM (inactive) |
| O=C(c1cccnc1NCc1ccccc1)N1CCOCC1 | > 30 µM (inactive) |
| Nc1c(CO)nnn1-c1ccccc1 | 11.4 µM |

| Compound | AC50 |
| --- | --- |
| CC(C)NC(=O)Nc1cccc(Cl)c1 | > 30 µM (inactive) |
| COc1cccc(-c2c(C(=O)N/N=C(\C)c3cccnc3)nnn2-c2nonc2N)c1 | > 30 µM (inactive) |
| COc1ccc(CNC(=O)CN(CC2CCCO2)C(=O)CNS(=O)(=O)c2ccccc2)cc1 (stereo not given) | > 30 µM (inactive) |
| O=C(CNS(=O)(=O)c1ccccc1)N/N=C/c1ccc(O)cc1 | 30.2 µM |
| CC1=C(C(=O)OCc2ccc3c(c2)OCO3)C(c2ccccc2OCc2ccccc2)NC(=O)N1 (stereo not given) | > 30 µM (inactive) |
| CC1(C)Cc2c(sc3c2C2=NCCN2C=N3)CS1 | > 30 µM (inactive) |
| Cc1ccsc1C1C2=C(CC(C)(C)CC2=O)Nc2ncnn21 (stereo not given) | 11.3 µM |
| C/C(=N\NC(=O)CSc1nc(C)[nH]c1[N+](=O)[O-])c1ccc(F)cc1 | > 30 µM (inactive) |
| CC(=O)Nc1ncc(Cc2cccc(Cl)c2Cl)s1 | > 30 µM (inactive) |
| CCOC(=O)c1[nH]c2c(c1C)C(=O)CC(c1ccc(OC)c(OC)c1)C2 (stereo not given) | > 30 µM (inactive) |
| Cc1ccc(N(C)C(=O)C2CCCN2S(=O)(=O)c2cccc3nsnc23)cc1 (stereo not given) | 29.8 µM |
| c1ccc2c(c1)ccc1nnc(SCc3ccc4c(c3)OCO4)n12 | > 30 µM (inactive) |
| COc1ccc(C(=O)Nc2nc(C)cc(C)n2)cc1 | > 30 µM (inactive) |
| CCn1c(=O)[nH]c(=O)c2c(N)c(C(=O)c3ccccc3OC)sc21 | 16.8 µM |
| Cc1cc(NC(=O)CSc2nc3ccccc3c(=O)n2CCCC(=O)NCc2ccco2)n[nH]1 | > 30 µM (inactive) |
| c1ccc2c3c([nH]c2c1)-c1[nH]ncc1CC3 | 25.1 µM |
| CCn1c(=O)[nH]c(=O)c2c(N)c(C(=O)c3cc(F)ccc3F)sc21 | 10.4 µM |
| NC(=O)c1sc2nc3c(c(-c4ccccc4)c2c1N)CCC3 | 13.9 µM |
| O=C(N/N=C/c1ccc(O)c(O)c1)C1CC1 | > 30 µM (inactive) |
| O=[N+]([O-])c1ccc(Nc2nc(NC3CCCCC3)nc(N3CCCC3)n2)cc1 | > 30 µM (inactive) |
| CC(C)(C)c1ccc(/C=C2\Oc3cc(O)ccc3C2=O)cc1 | > 30 µM (inactive) |
| Cc1nccnc1Sc1ccccc1 | > 30 µM (inactive) |
| Cn1c2ccc(F)cc2c2nc3ccccc3nc21 | > 30 µM (inactive) |
| O=c1c2ccccc2[nH]c2ccccc12 | > 30 µM (inactive) |
